Consider ten compounds from patent US4091006A, “Esters of 3-hydroxyindone compounds” (priority 1975, dated 1978).

Values after ≈ are worked out from the molar mass of the structure shown.

One data set concerns Mite Adults. The data set is described as follows: whole plant or invertebrate. To be noted: for LC50: Tetranychus urticae, read-out: Mite Adults LD50; for Mite Adults LD95: concentration to kill 95 percent. The procedure: Adults and nymphal stages of the two-spotted mite (tetranychus urticae (Koch)), reared on Tendergreen bean plants at 80±5° F. and 50±5 percent relative humidity, were the test organisms. Infested leaves from a stock culture were placed on the primary leaves of two bean plants 6 to 8 inches in height, growing in a 21/2 inch clay pot. 150-200 Mites, a sufficient number for testing, transferred from the excised leaves to the fresh plants in a period of 24 hours. Following the 24 hour transfer period, the excised leaves were removed from the infested plants. The test compounds were formulated by diluting the stock suspension with water to provide suspensions containing the desired amount of test compound per million parts of final formulation. The potted plants (one pot per compound) were placed on a revolving turntable and sprayed with 100-110 milliliters of test compound formulation by use of a DeVilbis spray gun set at 40 psi. air pressure. This application, which lasted 30 seconds, was sufficient to wet the plants to run-off. As a control, 100-110 milliliters of a water solution containing acetone and emulsifier in the same concentrations as the test compound formulation, but containing no test compound, were also sprayed on infested plants. The sprayed plants were held at 80±5° F. and 50±5 percent relative humidity for 4 days, after which, a mortality count of motile forms was made. Microscopic examination for motile forms was made on the leaves of the test plants. Any individual which was capable of locomotion upon prodding was considered living.
(§1) Side by side comparison tests were conducted to determine the effectiveness of selected enol ester compounds relative to (bis(p-chlorophenyl)trichlorethanol) a miticide sold under the trademark Kelthane and ovex (p-chlorophenyl-p-chlorobenzene sulfonate) two widely used commercial miticides.

The next data set relates to Mite Ova. As to the kind of experiment: whole plant or invertebrate. Particulars: for LC50: Tetranychus urticae, read-out: Mite Ova LD50; for Mite Ova LD95: concentration to kill 95 percent. The procedure: The test organism was the egg of the two-spotted mite (Tetranychus urticae (Koch)), as obtained from adults reared on Tendergreen bean plants under controlled conditions of 80±5° F. and 50±5 percent relative humidity. Heavily infested leaves from a stock culture were placed on the primary leaves of two bean plants 6 to 8 inches in height, growing in a 21/2 inch clay pot. Females were allowed to oviposit for a period of 48 hours and then the leaves of the infested plants were dipped in a solution containing 800 parts of tetraethyl pyrophosphate per million parts of water in order to destroy the reproductory forms and thus prevent further egg laying. […] The plants were allowed to dry thoroughly. […] The potted plants (one pot per compound) were placed on a revolving turntable and sprayed with 100-110 milliliters of test compound formulation by use of a DeVilbis spray gun set at 40 psig. air pressure. This application, which lasted 30 seconds, was sufficient to wet the plants to run-off. As a control, 100-110 milliliters of a water solution containing acetone and emulsifier in the same concentrations as the test compound formulation, but containing no test compound, were also sprayed on plants infested with eggs. The sprayed plants were held at 80±5° F. and 50±5 percent relative humidity for 4 days, after which a microscopic examination was made of unhatched (dead) and hatched (living) eggs.
as §1

Data set [1] has as its system adults and nymphal stages of the two-spotted mite. As to the kind of experiment: Mite Foliage Spray Test. Format: in vivo, Tetranychus urticae (Koch). To be noted: 4 days. From the text: (§2) The test procedures were as follows:
(§3) Compositions were rated on the basis of percent kill with a rating of 1 indicating no mortality; 3 signifying an approximately 50% mortality and 5 indicating 100% mortality at the indicated dosage.

The test system of data set [2] is egg of the two-spotted mite. The data set is described as follows: Mite Ovicide Test. It is filed as in vivo, Tetranychus urticae (Koch). Particulars: spray on eggs, 4 days.
Description: as §2
The plants were allowed to dry thoroughly.
as §3

In data set [3] the test system is eggs of the two-spotted mite. As to the kind of experiment: Fumigant toxicity, Method 1 (deposit in pie plate). Format: in vivo. Particulars: deposit approx. 160 μg per square cm, 4 days. The procedure: (§4) Two methods were used to evaluate fumigant properties:
Method 1: Fifty mg. of each compound were dissolved in 5 ml. of acetone and poured into a 20 cm. (bottom diameter) Pyrex No. 210 pie plate. The acetone was allowed to evaporate leaving a deposit of approximately 160 μg. per square cm. The plate was then placed in the bottom of a 50 pound metal lard container (about 30 cm. in diameter and 34 cm. high). Two excised bean plants, held in a 250 ml. Erlenmeyer flask containing 100 ml. of tap water and infested with eggs of the two-spotted mite, were placed in the center of the pie plate. The container was held in the insectary (temperature 80±5° F., 50±5% R. H.) for four days before mortality determinations were made.

The test system of data set [4] is egg forms of the two-spotted mite. The data set is described as follows: Fumigant toxicity, Method 2 (treated plants near untreated infested plants). It is filed as in vivo. Particulars: 500 ppm dip, 4 days. The procedure: as §4
Method 2: Excised bean plants infested with egg forms of the two-spotted mite were dipped in an aqueous preparation (500 ppm) of the test compound. The treated plants were transferred to 250 ml. Erlenmeyer flasks containing 100 ml. of tap water. Four flasks holding treated plants were evenly spaced around a similar flask in which were placed untreated mite-infested plants so that the leaves of the treated foliage were in close proximity (1-3 inches) to the untreated plants. Four days later mortality determinations were made.

The subject of another data set is Bean. As to the kind of experiment: Phytotoxicity, bean. To be noted: 2500 ppm, 10 days.
The test system of another data set is Corn. The data set is described as follows: Phytotoxicity, corn. To be noted: 2500 ppm, 10 days.
The subject of the next data set is Tomato. As to the kind of experiment: Phytotoxicity, tomato. To be noted: 2500 ppm, 10 days.
For a further data set, the system named is Cotton. The data set is described as follows: Phytotoxicity, cotton. To be noted: 2500 ppm, 10 days.
Data set [5] relates to Perennial rye grass, crabgrass, red root pigweed, mustard. The data set is described as follows: Preliminary Herbicide Seed Germination Test. Particulars: each rated 1 (no injury) to 5 (no seedlings emerged).
[6] abbreviates: rating/maximum 40: 100 and 1000 ppm, four species, 10-12 days.
Setting [7] is: rating/maximum 20: 100 ppm only, four species.
[8] abbreviates: rating/maximum 15: 100 ppm only, crabgrass omitted.

Description for Bean: (§5) Experiments were also conducted to determine the phytotoxicity of representative enol ester compositions with respect to healthy fresh plants. […] The test plants were sprayed in accordance with the procedure described above for the Mite Foliage Spray Test so as to deliver approximately 100 milliliters of test solution to the leaves of each plant tested. The sprayed plants and controls were set aside for approximately 1 hour to allow the solutions to dry and were then placed in the greenhouse. After 10 days the plants were visually inspected to determine the extent of foliage injury. A rating of 1 indicates no perceptible injury; 5 indicates the plant was dead and ratings of 2, 3 and 4 indicate intermediate degrees of injury based upon the number and extent to which leaves were injured.
Description for Corn: as §5
Description for Cotton: as §5
Description for Tomato: as §5

Turning to `OC(c1ccc(Cl)cc1)(c1ccc(Cl)cc1)C(Cl)(Cl)Cl` [Kelthane, bis(p-chlorophenyl)trichlorethanol], in the data set with Mite Adults, the LC50 was 20 µg/mL (≈ 54 µM) and the “Mite Adults LD95” value turned out to be 65 ppm. Moreover, in the data set with Mite Ova, the LC50 is 370 µg/mL (≈ 999 µM) and the “Mite Ova LD95” value is recorded as 700 ppm.
As for `Cc1cc(C)c(C2=C(OC(=O)C(C)C)c3ccccc3C2=O)c(C)c1` [2-(2',4',6'-Trimethylphenyl)-3-(isobutyryloxy)indone], in [1], the “Mite Adult rating” value was 5 (100% mortality). For the same compound, the “Mite Ova rating” value in data set [2] is listed as 5 (100% mortality). Moreover, the “Fumigant Toxicity Method 1” value in data set [3] is 5 (80-100% control). Further, the “Fumigant Toxicity Method 2” value in [4] is 5 (80-100% control). The “Phytotoxicity Rating, Bean” value in the data set with Bean is on record as 1. The “Phytotoxicity Rating, Corn” value in the data set with Corn is listed as 4. Moreover, in the data set on Tomato, the “Phytotoxicity Rating, Tomato” value amounted to 2. The “Phytotoxicity Rating, Cotton” value in the data set with Cotton was found to be 2. Moreover, the “Herbicide (total preemergence rating)” value in data set [5] (setting [6]) is given as 37/40.
`CCCCCCCCCCCCOC(=O)OC1=C(c2c(C)cc(C)cc2C)C(=O)c2ccccc21` [2-(2',4',6'-Trimethylphenyl)-3-(dodecyloxycarbonyloxy)indone]: in data set [1], the “Mite Adult rating” value is recorded as 5 (100% mortality). Besides, the “Mite Ova rating” value in [2] was 5 (100% mortality). The “Fumigant Toxicity Method 1” value in data set [3] was 1. The “Fumigant Toxicity Method 2” value in [4] is 1. In the data set with Bean, the “Phytotoxicity Rating, Bean” value was found to be 1. Further, the “Phytotoxicity Rating, Corn” value with Corn amounted to 2. Also, the “Phytotoxicity Rating, Tomato” value with Tomato worked out at 1. Moreover, the “Phytotoxicity Rating, Cotton” value with Cotton was 1. Besides, the “Herbicide (total preemergence rating)” value in data set [5] (setting [7]) is 17/20.
As to `O=S(=O)(Oc1ccc(Cl)cc1)c1ccc(Cl)cc1` [Ovex, p-chlorophenyl-p-chlorobenzene sulfonate, reference compound], the LC50 in the data set on Mite Adults was 1000 µg/mL. For the same compound, in the data set with Mite Ova, the LC50 came to 200 µg/mL and the “Mite Ova LD95” value came to 300 ppm.
Consider `Cc1cc(C)c(C2=C(OC(=O)CCCCl)c3ccccc3C2=O)c(C)c1` [2-(2',4',6'-Trimethylphenyl)-3-(4-chlorobutyryloxy)indone], for which the “Mite Adult rating” value in data set [1] is listed as 5 (100% mortality). For the same compound, the “Mite Ova rating” value in data set [2] is on record as 5 (100% mortality). Further, the “Fumigant Toxicity Method 1” value in data set [3] is given as 1. Besides, the “Fumigant Toxicity Method 2” value in [4] is given as 1. In the data set with Bean, the “Phytotoxicity Rating, Bean” value came to 1. The “Phytotoxicity Rating, Corn” value in the data set on Corn is reported as 2. The “Phytotoxicity Rating, Tomato” value in the data set on Tomato worked out at 2. Also, the “Phytotoxicity Rating, Cotton” value with Cotton stood at 2. Further, in [5] (setting [8]), the “Herbicide (total preemergence rating)” value is on record as 14/15.
As for `Cc1cc(C)c(C2=C(OC(=O)C3CCCCC3)c3ccccc3C2=O)c(C)c1` [2-(2',4',6'-Trimethylphenyl)-3-(cyclohexanoyloxy)indone], the “Mite Adult rating” value in [1] was 5 (100% mortality). Moreover, in [2], the “Mite Ova rating” value is listed as 5 (100% mortality). Besides, the “Fumigant Toxicity Method 1” value in [3] came out at 1. Besides, the “Fumigant Toxicity Method 2” value in data set [4] is 1. The “Phytotoxicity Rating, Bean” value in the data set on Bean is 1. In addition, the “Phytotoxicity Rating, Corn” value in the data set on Corn is 1. Further, the “Phytotoxicity Rating, Tomato” value with Tomato turned out to be 2. For the same compound, the “Phytotoxicity Rating, Cotton” value in the data set with Cotton is recorded as 2. Also, the “Herbicide (total preemergence rating)” value in data set [5] (setting [6]) was 31/40.
Regarding `CCCCC(CC)COC(=O)OC1=C(c2c(C)cc(C)cc2C)C(=O)c2ccccc21` (stereo not drawn) [2-(2',4',6'-Trimethylphenyl)-3-(2-ethylhexyloxycarbonyloxy)indone], in data set [1], the “Mite Adult rating” value is recorded as 5 (100% mortality). The “Mite Ova rating” value in [2] is 5 (100% mortality). The “Fumigant Toxicity Method 1” value in data set [3] came out at 1. Also, the “Fumigant Toxicity Method 2” value in [4] is on record as 1. The “Phytotoxicity Rating, Bean” value in the data set with Bean stood at 1. Also, the “Phytotoxicity Rating, Corn” value with Corn stood at 2. Also, in the data set with Tomato, the “Phytotoxicity Rating, Tomato” value is 1. Also, the “Phytotoxicity Rating, Cotton” value with Cotton turned out to be 1. The “Herbicide (total preemergence rating)” value in [5] (setting [7]) was 15/20.
With `CCCCC(CC)C(=O)OC1=C(c2c(C)cc(C)cc2C)C(=O)c2ccccc21` (stereo not drawn) [2-(2',4',6'-Trimethylphenyl)-3-(2-ethylhexanoyloxy)indone], the “Mite Adult rating” value in data set [1] is listed as 5 (100% mortality). The “Mite Ova rating” value in [2] was 5 (100% mortality). Also, the “Fumigant Toxicity Method 1” value in data set [3] was found to be 1. Also, the “Fumigant Toxicity Method 2” value in [4] was 1. Also, in the data set with Mite Adults, the “Mite Adults LD95” value is 230 ppm. Besides, in the data set with Mite Ova, the “Mite Ova LD95” value is given as 6 ppm. Also, the “Phytotoxicity Rating, Bean” value with Bean came out at 2. Moreover, the “Phytotoxicity Rating, Corn” value with Corn is recorded as 1. Moreover, the “Phytotoxicity Rating, Tomato” value with Tomato turned out to be 1. Further, in the data set on Cotton, the “Phytotoxicity Rating, Cotton” value was 1. Further, the “Herbicide (total preemergence rating)” value in data set [5] (setting [6]) is 29/40.
On to `CCCCCCCCCCCCCCCCCC(=O)OC1=C(c2c(C)cc(C)cc2C)C(=O)c2ccccc21` [2-(2',4',6'-Trimethylphenyl)-3-(octadecanoyloxy)indone], for which the “Mite Adult rating” value in [1] was 5 (100% mortality). In addition, in data set [2], the “Mite Ova rating” value is reported as 5 (100% mortality). Further, the “Fumigant Toxicity Method 1” value in data set [3] is on record as 1. Besides, in data set [4], the “Fumigant Toxicity Method 2” value was 1. The “Phytotoxicity Rating, Bean” value with Bean is 1. Besides, the “Phytotoxicity Rating, Corn” value in the data set with Corn is listed as 1. Moreover, the “Phytotoxicity Rating, Tomato” value in the data set on Tomato was 1. Further, the “Phytotoxicity Rating, Cotton” value with Cotton amounted to 1. In data set [5] (setting [7]), the “Herbicide (total preemergence rating)” value is 19/20.
With `COC(=O)CCC(=O)OC1=C(c2c(C)cc(C)cc2C)C(=O)c2ccccc21` [2-(2',4',6'-Trimethylphenyl)-3-(3-methoxycarbonylpropionyloxy)indone], the “Mite Adult rating” value in data set [1] is 5 (100% mortality). Further, the “Mite Ova rating” value in [2] is listed as 5 (100% mortality). In addition, the “Fumigant Toxicity Method 1” value in data set [3] is recorded as 1. Further, the “Fumigant Toxicity Method 2” value in [4] is recorded as 1. For the same compound, in the data set on Bean, the “Phytotoxicity Rating, Bean” value was 1. In the data set on Corn, the “Phytotoxicity Rating, Corn” value amounted to 1. Also, the “Phytotoxicity Rating, Tomato” value in the data set on Tomato amounted to 1. Further, the “Phytotoxicity Rating, Cotton” value with Cotton was determined as 1. Moreover, in data set [5] (setting [8]), the “Herbicide (total preemergence rating)” value was 15/15.
